In publication PMC4721142, “Randomized controlled studies on the efficacy of antiarthritic agents in inhibiting cartilage degeneration and pain associated with progression of osteoarthritis in the rat” (Arthritis Research & Therapy, 2016):

How the values were obtained:
[1] = tested on: MIA rat model of OA; assay: MIA trial 3 digital Randall-Selitto test (weekly i.a. clonidine 4.5 μg, tacrolimus 30 ng, fluocinolone 15 ng, meloxicam 100 μg, tranilast 500 ng, TH 150 μg; clonidine 100 μg/kg s.c.); format: in vivo
Experimental: The digital Randall-Selitto (dRS) test is said to be a reliable and repeatable measure of neuropathic, bone, and inflammatory pain behavior in several different models, including those of arthritic or joint pain [29, 31, 32]. Baseline and posttreatment values were evaluated using a dRS test device (IITC Life Science, Woodland Hills, CA, USA). Animals were allowed to acclimate to the testing room before all experimentation and for a minimum of 30 minutes before testing. To ensure that their hind limbs were accessible, the animals were gently suspended in a restraint sling. The joint compression threshold was measured once at each time point for the ipsilateral and contralateral knee joints. Pressure was applied gradually over approximately 10 seconds to the medial and lateral aspects of the knee joint. Measurements were taken from the first observed behavior of vocalization, struggle, or withdrawal. A cutoff value of 600 g was used to prevent injury to the animal.
Following isoflurane anesthesia, 50 μl (2 mg) of MIA was injected into the synovial space of the left knee. Animals were randomly assigned to groups, and pain behavior was assessed 7, 14, 21, and 28 days following MIA injection and intervention using WB with the Stoelting incapacitance meter (trial 1) or the dRS test (trials 2 and 3). […] Animals received MIA treatment and then saline control or therapeutic. […] Histopathology was performed at each time point and at study termination. All studies were conducted in accordance with the International Association for the Study of Pain Guidelines and were approved by the Algos Therapeutics, Inc. Institutional Animal Care and Use Committee (IACUC) before initiation. Those running the studies were blind to the treatments. See Additional file 1 for further details. […]
struggle or withdrawal. A cut-off value of 600 g was used to prevent injury to the animal. The mean and standard error of the mean (SEM) were determined for each treatment group.
Statistical significance was assigned as p ≤ 0.05. The stability of the vehicle group over time was assessed on each testing day (Days 7, 14, 21, and 28) using repeated measures one-way analysis of variance (ANOVA) comparing joint compression thresholds at each experimental time point on a given testing day versus that testing day’s pre-treatment value. Osteoarthritis-related pain in the vehicle group was estimated at each time point on each testing day by comparing ipsilateral (injured) to contralateral (normal) joint compression thresholds using paired t-tests. The progression of osteoarthritis-related pain in the vehicle group was estimated by comparing pre-treatment joint compression thresholds on each testing day versus pre-MIA measurements using repeated measures one-way ANOVA. […]
thresholds at each experimental time point on a given testing day with vehicle treated animals using an unpaired t-test. The acute effect of Tacrolimus was analyzed by comparing joint compression thresholds at each time point on a given testing day with the corresponding pre-treatment baseline values using repeated measures one-way ANOVA and compared to vehicle treated animals using […]
values using repeated measures one-way ANOVA. Chronic effects were analyzed by comparing pre-treatment joint compression thresholds on each testing day versus the appropriate Day 7 pre-treatment values using repeated measures one-way ANOVA and by comparing pre-treatment joint compression thresholds with vehicle treated animals on each testing day using an unpaired t-test or one-way ANOVA. Day 7 pre-treatment joint compression thresholds between all groups were assessed using one-way ANOVA. The Dunnett’s multiple comparison post hoc test was used when […]
dosing were housed three per cage. Animals had free access to food and water and were maintained […]
The animal colony was maintained at approximately 21 °C. All experiments were conducted in accordance with the International Association for the Study of Pain Guidelines.

[2] = tested on: NF-κB; assay: TNF-α-stimulated NF-κB dual luciferase reporter assay in HeLa cells; format: cell-based
Procedure, shortened: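 HeLa cells transfected with NF-κB firefly luciferase and Renilla pRLuc-N3 plasmids (8:1), in triplicate; TNF-α stimulation with drug, luminescence read 5 h later by Dual-Glo. Firefly/Renilla ratio normalised to viable transfected cells, expressed as fold over cells without TNF-α or drug.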

Structure (SMILES) | dRS, hours after dosing with significant difference ([1]; day 7) | dRS, hours after dosing with significant difference ([1]; day 14) | dRS, hours after dosing with significant difference ([1]; day 21) | dRS, hours after dosing with significant difference ([1]; day 28, negative = worse) | Effective against NF κβ (p<0.05) [2] | Effective range against NFkB [2]
CC(C)(C)CC(=O)OCC(=O)[C@@]12OC(C)(C)O[C@@H]1C[C@H]1[C@@H]3CCC4=CC(=O)C=C[C@]4(C)[C@@]3(F)[C@@H](O)C[C@@]12C [Triamcinolone hexacetonide] | 3 h | 1 h | Pretrt^f | -24 h |  | 
CC1=C(CO)C(=O)O[C@@H]([C@@H](C)[C@H]2CC[C@H]3[C@@H]4C[C@H]5O[C@]56[C@@H](O)C=CC(=O)[C@]6(C)[C@H]4CC[C@]23C)C1 [Withaferin A] |  |  |  |  | 2 to 17 µM | 
CC1(C)O[C@@H]2C[C@H]3[C@@H]4C[C@H](F)C5=CC(=O)C=C[C@]5(C)[C@@]4(F)[C@@H](O)C[C@]3(C)[C@]2(C(=O)CO)O1 [Fluocinolone, Fluocinolone Acetonide] | 1 h |  |  | -24 h |  | 
COc1ccc(C=CC(=O)Nc2ccccc2C(=O)O)cc1OC [Tranilast, N-(3′,4′-dimethoxycinnamoyl)anthranilic acid] |  | 1 h | 1 h |  |  | None
Clc1cccc(Cl)c1N=C1NCCN1 [Clonidine] | 1 h |  |  |  |  | Not effective
